# Measurements reported in patent US20260042754A1, “Substituted Bicyclic Heteroaryl Sulfonamide Derivatives for the Treatment of Cancer” (NODUS ONCOLOGY LIMITED, priority 2022, published 2026).
# Test system: RMUG-S mucinous cystadenocarcinoma ovarian cancer cell line
# Assay: Cell proliferation assay (CellTiter-Glo), RMUG-S, Examples 1-11
# Assay type: cell-based
# Settings: Examples 1-11: 96-well, 5000 cells per well, 120 hours; highest concentration tested 9000 nM; read-out: RMUG-S GI50 (high PARG dependency)
# Method: For Examples 1-11, RMUG-S mucinous cystadenocarcinoma (JCRB, #IF050320) and TOV-112D endometrioid adenocarcinoma (ATCC, #CRL-11731) ovarian cancer cell lines were grown in DMEM/F-12 with glutamine (BioConcept, #1-26F09-I) and RPMI with glutamine (BioConcept, #1-41F03-1), respectively, and both media containing 10% FBS (Sigma-Aldrich, #F9665) and supplemented with 1% Penicillin-Streptomycin (BioConcept, #4-01F00-H) using standard cell culture techniques. RMUG-S and TOV-112D ovarian cancer cell lines were selected as highly PARG dependent and having low PARG dependency, respectively, based on their publically available PARG shRNA (short hairpin ribonucleic acid) dropout profiles in the Cancer Dependency Map (DepMap) data portal (Broad Institute DepMap Project; Cheung H W et al, Proceedings of the National Academy of Sciences 2011; Cowley G S et al, Scientific Data 2014; McDonald E R et al, Cell 2017). PARG dependency of these cell lines was independently verified and confirmed by genetic and pharmacological means using shRNA-mediated PARG depletion, and the previously reported cell-permeable quinazolinedione PARG inhibitor tool compound PDD00017273 (Pillay N et al, Cancer Cell 2019). Thus, growth inhibition of the RMUG-S cell line serves as a functional on-target inhibition readout, while observing potent growth inhibition of TOV-112D is indicative of compound off-target activity. Cells were seeded in 96-well plates with clear bottom (Huberlab, #7.655 090) at a seeding density of 5000 cells per well in 100 μL of medium, and the plates were incubated overnight at 37° C. with 5% CO2 prior to treatment with compounds. Experimental compounds were prepared in DMSO at a concentration of 10 mM. Compounds were distributed at the desired final concentrations using the Tecan D300e Digital Dispenser (TECAN) and normalized to the highest DMSO volume. The plates were incubated for 120 hours and cell numbers were then measured using CellTiter-Glo® (Promega, #G9241), essentially as recommended by the manufacturer. Briefly, for the CellTiter-Glo® proliferation readout, 50 μL of the reconstituted CellTiter-Glo® 2.0 Reagent were added to 100 μL of medium containing cells. The plates were incubated at room temperature for 10 minutes to stabilize the luminescent signal, and luminescence intensity signals were then measured with a Synergy 4™ microplate reader (BioTek Instruments). Relative proliferation values were calculated by normalizing the raw data using DMSO-treated cells (100% proliferation) and the signals obtained from cells that were evaluated at the time of compound addition (0% proliferation). The concentration-response data were fitted to a sigmoidal 4-parameter logistic model with the maximum constrained to 100%. GI50 values were calculated from the curves as the compound concentrations reducing proliferation to 50%.
row,SMILES,GI50 [nM]
1,"CO/N=c1\[nH]c2ccc(S(=O)(=O)NC3(C)CC3)cc2c(=O)n1Cc1cnc(C)s1 [Example 1, 2-methoxyimino-N-(1-methylcyclopropyl)-3-[(2-methylthiazol-5-yl)methyl]-4-oxo-1H-quinazoline-6-sulfonamide]",500 to 2000
2,"CO/N=c1\[nH]c2ccc(S(=O)(=O)NC3(C)COC3)cc2c(=O)n1Cc1cnn(C)c1 [Example 2, 2-methoxyimino-N-(3-methyloxetan-3-yl)-3-[(1-methylpyrazol-4-yl)methyl]-4-oxo-1H-quinazoline-6-sulfonamide]",2000 to 9000
3,"Cc1nc(C)c(CO/N=c2\[nH]c3ccc(S(=O)(=O)NC4(C)CC4)cc3c(=O)n2Cc2cnn(C)c2)s1 [Example 3, 2-[(2,4-dimethylthiazol-5-yl)methoxyimino]-N-(1-methylcyclopropyl)-3-[(1-methylpyrazol-4-yl)methyl]-4-oxo-1H-quinazoline-6-sulfonamide]",2000 to 9000

# Continued, values first:
row,GI50 [nM],SMILES
1,500 to 2000,"CO/N=c1\[nH]c2c(-c3ccc(C(=O)N(C)C)cc3)cc(S(=O)(=O)NC3(C)CC3)cc2c(=O)n1Cc1cnn(C)c1 [Example 5, 4-[2-methoxyimino-6-[(1-methylcyclopropyl)sulfamoyl]-3-[(1-methylpyrazol-4-yl)methyl]-4-oxo-1H-quinazolin-8-yl]-N,N-dimethyl-benzamide]"
2,500 to 2000,"CO/N=c1\[nH]c2c(N3CCN[C@H](C)C3)cc(S(=O)(=O)NC3(C)CC3)cc2c(=O)n1Cc1cnn(C)c1 [Example 7, 2-methoxyimino-N-(1-methylcyclopropyl)-3-[(1-methylpyrazol-4-yl)methyl]-4-oxo-8-[(3R)-3-methylpiperazin-1-yl]-1H-quinazoline-6-sulfonamide]"
3,< 500,"CON=c1[nH]c2c(N3CCN(C(=O)C4(C)CC4)[C@H](C)C3)cc(S(=O)(=O)NC3(C)CC3)cc2c(=O)n1Cc1cnn(C)c1 [Example 8, 2-methoxyimino-N-(1-methylcyclopropyl)-3-[(1-methylpyrazol-4-yl)methyl]-4-oxo-8-[(3R)-3-methyl-4-(1-methylcyclopropanecarbonyl)piperazin-1-yl]-1H-quinazoline-6-sulfonamide]"
